In US5783557A, “THF-γ2 analogs and pharmaceutical compositions comprising them” (Yeda Research and Development Company Ltd at Weizmann …, priority 1993, dated 1998):
No end group written: not given here. *: point of attachment. iodo = iodine substituent on Tyr (iodo-Tyr), I*

Columns and labels:
[1] = test system: GM-CFC from mouse bone marrow; assay: Effect on GM-CFC from mouse bone marrow; assay type: cell-based; parameters: key: +++: strong enhancement, as THF-γ2; ++ and +: medium and weak enhancement, lower than THF-γ2; ++ and +: medium and weak enhancement, lower than THF-γ2; --no activity; conditions: graded against THF-γ2; Example 1, section 1.2
Method: 1.2. Effect of THF-γ2 on GM-CFC From Mouse Bone Marrow. In this second bioassay, the effect of THF-γ2 and its analogs in the enhancement of the number of colonies of GM-CFC in the presence of growth factors is determined. 1.2.1. […] Tibia and femur were removed from BALB/c female mice (6-8 weeks old). The tip of the bone was cut and DMEM with 2.5% FCS was flushed into the bone using a 1 ml syringe with a 26 G needle. This procedure was repeated twice, the cells were then washed in medium and counted in the presence of trypan blue. 1.2.2 Preincubation with THF-γ2. Bone marrow cells suspension was prepared in DMEM with 2.5% FCS at a concentration of 15×10^6 /3.0 ml. THFγ2 diluted in DMEM was added in 20 μl aliquots, control cells received 20 μl DMEM. Cell suspensions in conical tissue culture tubes were incubated at 37° C./8% CO2 for 1 h. Cells were then collected, washed and counted in trypan blue. Cell suspensions were adjusted at 1×10^6 /ml. 1.2.3. GM-CFC assay. Bone marrow cells (4×10^5) are suspended in methylcellulose (0.8%), FCS (20%) and conditioned medium of 14FIL3 CB6 cell line (5%) in a total volume of 4 ml of DMEM. After vigorous mixing, the suspension is seeded into 30 mm diameter plates with the aid of a 3.0 ml syringe (21G needle, in triplicate). […] Colonies are counted using an inverted microscope at low magnification.

mouse spleen cells = assay: ConA-induced IL-2 production; assay type: cell-based; parameters: key: +++: strong enhancement, as THF-γ2; ++ and +: medium and weak enhancement, lower than THF-γ2; ++ and +: medium and weak enhancement, lower than THF-γ2; --no activity; conditions: graded against THF-γ2; Example 1, section 1.1
Method: 1.1. ConA-Induced IL-2 Production
In this bioassay, the effect of THF-γ2 and its analogs in enhancing the secretion of ConA-induced IL-2 from murine spleen cells is determined.
1.1.1. Preparation of cells and preincubation with THF-γ2. Pooled spleen cells (10^7 cell/ml) from five female C3B6F1 (C3HeB/FeJ×C57BL/6J) mice (obtained from Jackson Labs, U.S.A.) aged 6-8 weeks are seeded in 24-well plates (Costar, Cambridge, Mass, U.S.A.). The cells are prepared in medium RPMI-1640 supplemented with penicillin (100 u/ml), streptomycin (100 μg/ml), 2 mM glutamine, 50 μM 2-mercaptoethanol (2-ME) and 20 mM HEPES. THF-γ2 in various concentrations in phosphate buffered saline (PBS), is added in 20 μl aliquots, while control cultures receive 20 μl PBS. The cell cultures are incubated for 20 h in a humidified incubator of 5% CO2 /95% air and 37° C.
1.1.2. Induction of IL-2. ConA (Concanavalin A, ConA, 3×crystalline, Bio-Makor, Ness-Ziona, Israel) is added to the wells in 1 ml fresh medium (as in 1.1.1 above) at suboptimal concentration (1-2.5 μ/ml). […]
1.1.3. […] After incubation of 48 h at 37° C./5% CO2, the proliferation is assessed by the MTT colorimetric assay (T. Mosmann, J. Immunol. Methods 65: 55-63, 1983). Results are expressed in units/ml calculated using a standard murine IL-2 preparation (according to S. Gillis et al., J. Immunol. 120: 2027, 1978).

[2] = test system: viral infections of the herpes group; conditions: four patients, same protocol as the pilot study; cited from earlier work
[3] = test system: murine cytomegalovirus (MCMV); conditions: MCMV-infected mice; cited from earlier work
[4] = test system: patients with reduced circulating T cells; conditions: 4 ng/kg/day i.m., 18 injections in 3 weeks; cited from earlier work

| Substance | GM-CFC: Enhancement of the number of GMCFC from mouse bone marrow [1] | IL-2: Enhancement of ConA induced IL2 production in mouse spleen cells (mouse spleen cells) | side effects [2] | interferon synthesis and NK cytotoxicity [3] | side effects [4] |
| --- | --- | --- | --- | --- | --- |
| Iodo-Tyr-Leu-Glu-Asp-Gly-Pro-Lys-Phe-Leu (Y(iodo)LEDGPKFL) [iodo-Y^-1 -THF-γ2] | - | ++ |  |  |  |
| LEDGPKFL [THF-γ2, Leu-Glu-Asp-Gly-Pro-Lys-Phe-Leu] |  |  | no deleterious side effects were documented | did not affect | No side effects attributable to synthetic THF-γ2 were observed |
